Assay results from patent US8192962B2, “Processes for detecting toxic substances” (Daikin Industries, Ltd., priority 2001, dated 2012).

System: Stress protein genes
Assay: DNA chip mRNA expression in yeast, stress protein genes (Table 6)
Type: cell-based, Saccharomyces cerevisiae S288C
Description: Yeast (Saccharomyces cerevisiae S288C (α SUC2mal mel gap2 CUP1)) were incubated at 25° C. on YPD medium (yeast extract 1%, polypepton 2%, glucose 2%). One of toxic chemical substances was added to the cells at logarithmic growth phase, and the cells were further incubated for two hours. Cells were cultured without any chemical substance in the same condition, and were used as control. Concentrations of the chemical substances were defined to inhibit the growth of the yeast but not lead to death.
After completion of the incubation, the culture was centrifuged to collect the cells. To the cells, sodium acetate buffer (50 mM sodium acetate, 10 mM EDTA, 1% SDS) was added, and the mixture was shaken at 65° C. for five minutes, followed by returning to room temperature, and obtaining the supernatant, of which the procedures were repeated two times. To the supernatant, ½ amount of a solution of phenol/chloroform was added, and the mixture was centrifuged to give a supernatant, which was added with an equal amount of chloroform, and the mixture was centrifuged to give a supernatant. To the supernatant, an equal amount of isopropanol containing 0.3 M sodium acetate was added, and the mixture was allowed to stand at room temperature for 30 minutes, after which the mixture was centrifuged to give a sediment of the whole RNAs. Seventy % ethanol was added to the sediment, and the mixture was again centrifuged to give a sediment, which was then dried and dissolved in water. mRNA was isolated from the whole RNAs as followings. In view of the fact that a poly A chain is attached to the 3′ terminus of mRNA, a polynucleotide having a poly T structure which was immobilized on the surface of latex beads was used to trap the mRNA, and then the mRNA was washed and eluted with spine column (Oligotex-dT30<Super>mRNA Purification Kit, Takara). Reverse transcription of the mRNA was conducted with a reverse transcriptase (Super Script II Reverse Transcriptase; catalogue No. 18064-014, GibcoBRL) using fluorescence-labeled nucleotides to give cDNAs that were introduced with Cy3-dUTP or Cy5-dUTP during the reverse transcription.
The labeled cDNAs were dissolved in TE buffer (10mM Tris-HCl/1 mM EDTA, pH8.0), and the solution was dropped on the DNA chip containing the whole genes of yeast (DNA Chip Research Inc. Japan) so that the cDNAs were hybridized on the DNA chip at 65° C. for over 12 hours. The fluoresces intensity of the DNA chip was read with a scanner, and the ratio relative to the fluorescence intensity resulting from the absence of chemical substance was estimated as the following, which is shown in Tables 1 to 9: […]

[Cl][Hg][Cl] [(3), HgCl2]
The level of expressed mRNA in the presence of chemical substance/The level of expressed mRNA in the absence of chemical substance (yeast gene YIL033C): 3.3
The level of expressed mRNA in the presence of chemical substance/The level of expressed mRNA in the absence of chemical substance (yeast gene YIR037W): 2.0
The level of expressed mRNA in the presence of chemical substance/The level of expressed mRNA in the absence of chemical substance (yeast gene YIR038C): 4.6
The level of expressed mRNA in the presence of chemical substance/The level of expressed mRNA in the absence of chemical substance (yeast gene YJL128C): 0.4
The level of expressed mRNA in the presence of chemical substance/The level of expressed mRNA in the absence of chemical substance (yeast gene YJL158C): 2.8
The level of expressed mRNA in the presence of chemical substance/The level of expressed mRNA in the absence of chemical substance (yeast gene YJL159W): 2.8
The level of expressed mRNA in the presence of chemical substance/The level of expressed mRNA in the absence of chemical substance (yeast gene YJL165C): 1.3
The level of expressed mRNA in the presence of chemical substance/The level of expressed mRNA in the absence of chemical substance (yeast gene YJR045C): 3.9
The level of expressed mRNA in the presence of chemical substance/The level of expressed mRNA in the absence of chemical substance (yeast gene YJR090C): 0.6
The level of expressed mRNA in the presence of chemical substance/The level of expressed mRNA in the absence of chemical substance (yeast gene YKL161C): 0.9
The level of expressed mRNA in the presence of chemical substance/The level of expressed mRNA in the absence of chemical substance (yeast gene YKL163W): 3.4
The level of expressed mRNA in the presence of chemical substance/The level of expressed mRNA in the absence of chemical substance (yeast gene YKL164C): 2.5
The level of expressed mRNA in the presence of chemical substance/The level of expressed mRNA in the absence of chemical substance (yeast gene YKL210W): 2.7
The level of expressed mRNA in the presence of chemical substance/The level of expressed mRNA in the absence of chemical substance (yeast gene YKR053C): 1.0
The level of expressed mRNA in the presence of chemical substance/The level of expressed mRNA in the absence of chemical substance (yeast gene YLL024C): 5.3
The level of expressed mRNA in the presence of chemical substance/The level of expressed mRNA in the absence of chemical substance (yeast gene YLL026W): 7.7
The level of expressed mRNA in the presence of chemical substance/The level of expressed mRNA in the absence of chemical substance (yeast gene YLL039C): 1.7
The level of expressed mRNA in the presence of chemical substance/The level of expressed mRNA in the absence of chemical substance (yeast gene YLL060C): 2.3
The level of expressed mRNA in the presence of chemical substance/The level of expressed mRNA in the absence of chemical substance (yeast gene YLR006C): 0.9
The level of expressed mRNA in the presence of chemical substance/The level of expressed mRNA in the absence of chemical substance (yeast gene YLR109W): 6.0
The level of expressed mRNA in the presence of chemical substance/The level of expressed mRNA in the absence of chemical substance (yeast gene YLR259C): 3.1
The level of expressed mRNA in the presence of chemical substance/The level of expressed mRNA in the absence of chemical substance (yeast gene YML007W): 0.9
The level of expressed mRNA in the presence of chemical substance/The level of expressed mRNA in the absence of chemical substance (yeast gene YML070W): 2.5
The level of expressed mRNA in the presence of chemical substance/The level of expressed mRNA in the absence of chemical substance (yeast gene YMR021C): 0.9
The level of expressed mRNA in the presence of chemical substance/The level of expressed mRNA in the absence of chemical substance (yeast gene YMR173W): 3.0
The level of expressed mRNA in the presence of chemical substance/The level of expressed mRNA in the absence of chemical substance (yeast gene YMR186W): 2.0
The level of expressed mRNA in the presence of chemical substance/The level of expressed mRNA in the absence of chemical substance (yeast gene YNL064C): 1.8
The level of expressed mRNA in the presence of chemical substance/The level of expressed mRNA in the absence of chemical substance (yeast gene YNL160W): 10.6
The level of expressed mRNA in the presence of chemical substance/The level of expressed mRNA in the absence of chemical substance (yeast gene YNL241C): 4.3
The level of expressed mRNA in the presence of chemical substance/The level of expressed mRNA in the absence of chemical substance (yeast gene YNR076W): 2.5
The level of expressed mRNA in the presence of chemical substance/The level of expressed mRNA in the absence of chemical substance (yeast gene YOL064C): 1.1
The level of expressed mRNA in the presence of chemical substance/The level of expressed mRNA in the absence of chemical substance (yeast gene YOL161C): 2.4
The level of expressed mRNA in the presence of chemical substance/The level of expressed mRNA in the absence of chemical substance (yeast gene YOR008C): 1.4
The level of expressed mRNA in the presence of chemical substance/The level of expressed mRNA in the absence of chemical substance (yeast gene YOR009W): 3.2
The level of expressed mRNA in the presence of chemical substance/The level of expressed mRNA in the absence of chemical substance (yeast gene YOR010C): 3.2
The level of expressed mRNA in the presence of chemical substance/The level of expressed mRNA in the absence of chemical substance (yeast gene YOR027W): 4.4
The level of expressed mRNA in the presence of chemical substance/The level of expressed mRNA in the absence of chemical substance (yeast gene YOR208W): 1.2
The level of expressed mRNA in the presence of chemical substance/The level of expressed mRNA in the absence of chemical substance (yeast gene YPL059W): 2.6
The level of expressed mRNA in the presence of chemical substance/The level of expressed mRNA in the absence of chemical substance (yeast gene YPL106C): 2.4
The level of expressed mRNA in the presence of chemical substance/The level of expressed mRNA in the absence of chemical substance (yeast gene YPL140C): 0.9
The level of expressed mRNA in the presence of chemical substance/The level of expressed mRNA in the absence of chemical substance (yeast gene YPL194W): 0.4
The level of expressed mRNA in the presence of chemical substance/The level of expressed mRNA in the absence of chemical substance (yeast gene YPL223C): 1.2
The level of expressed mRNA in the presence of chemical substance/The level of expressed mRNA in the absence of chemical substance (yeast gene YPL240C): 2.4
The level of expressed mRNA in the presence of chemical substance/The level of expressed mRNA in the absence of chemical substance (yeast gene YPR005C): 1.5
The level of expressed mRNA in the presence of chemical substance/The level of expressed mRNA in the absence of chemical substance (yeast gene YPR026W): 5.0
